For one assay, the system named is normal mice. In words: Spontaneous locomotor activity after oral administration to normal mice (SCANET apparatus). Format: in vivo, C57BL/6 mice (male). As to conditions: p.o. Here is the method:
The enhancing effects of compound (IX) on the spontaneous locomotor activity were examined in normal mice.
Compound (IX) was orally administrated to C57BL/6 mice (male) and the spontaneous locomotor activity was measured with a locomotor activity measuring apparatus (SCANET, TOYO sangyo). Mice were familiarized to the cage of the apparatus for at least 60 min. Compound (IX) (1,3,10 mg/kg) or vehicle (vehicle, distilled water Otsuka) was administrated orally. The spontaneous locomotor activity was measured for 5 hours after the mice were returned to the cage.

A further assay has as its system 6-OHDA-treated mice. In words: Spontaneous locomotor activity in mice injected intracerebroventricularly with 6-OHDA (Parkinson's disease model). Format: in vivo, C57BL/6 mice (male). The note with it: 6-OHDA mice. As for the experimental part: Mice injected intracerebroventricularly with a monoaminergic toxin, 6-OHDA were used as a model for Parkinson's disease.
To C57BL/6 mice (male) were administrated desipramine (desipramine (25 mg/kg, i.p., 0.5%), lactic acid) and 6-OHDA (40 μg/μl/mouse, 0.2% ascorbic acid) was injected in the cerebroventricule after 30 min. The mice were placed in the locomotor activity measuring apparatus after one day. Compound (IX) (0.3, 1 mg/kg), with or without L-DOPA (10 mg/kg, i.p., dissolved in 0.1N HCl and diluted with distilled water or injection, Otsuka Pharmaceutical), was administrated after 90 min, then the spontaneous locomotor activity was measured for 5 hours. When L-DOPA was administrated, mice were pre-treated with carbidopa (25 mg/kg, i.p., 0.5% lactic acid) before 30 min.

Assay [1] has as its system reserpine-induced cataleptic posture. In words: Catalepsy test in mice pre-treated with reserpine. Type of assay: in vivo, ddy mice (male). As to conditions: 1 hour after administration. As for the experimental part:
The effects of compound (IX) in single administration and in combination with L-DOPA on cataleptic responses were examined in mice pre-treated with a monoamine-depleting drug, reserpine. Reserpine (5 mg/kg, i.p., Apoplon Inj, Daiichi Pharmaceutical) was administrated to ddy mice (male). On the next day, compound (IX) (0.3, 1, 3 mg/kg, p.o.) with or without L-DOPA (25, 100 mg/kg, i.p., dissolved in 0.1N HCl and diluted with distilled water for injection (Otsuka Pharmaceutical)) was administrated to the mice and catalepsy test was performed after 1 hour. When L-DOPA was administrated, mice were pre-treated with carbidopa (25 mg/kg, i.p., 0.5% lactic acid) before 30 min. The forelimbs or hindlimbs of each mouse were placed on a 4.5 cm high horizontal bar and the time was measured (cut off time 30 sec) until both legs reach the floor. The cataleptic responses were scored as follows (less than 5 sec.: 0 point, 5 sec. to less than 10 sec.: 1 point, 10 sec to less than 15 sec.: 2 points, 15 sec. to than 20 sec.: 3 points, 20 sec. to less than 25 sec.: 4 points, 25 sec. to less than 30 sec.: 5 points, 30 sec. or more: 6 points). For forelimbs, the scores for 3 repetitive tests were summated. For hindlimbs, the tests were performed 5 times and of which 3 scores were summated excluding the highest and lowest scores. The catalepsy scores were calculated as the total scores for forelimbs and hindlimbs.

The next assay has as its system MPTP-treated mice. In words: Spontaneous locomotor activity in MPTP-treated mice (Parkinson's disease model). Type of assay: in vivo, C57BL/6 mice (male). The note with it: MPTP 40 mg/kg x 2 mice, compound (IX) alone 3 mg/kg p.o., P < 0.05 vs MPTP-treated control group. As for the experimental part: Mice injected with a dopaminergic toxin, MPTP were used as a model for Parkinson's disease and the effects of single administration of compound (IX) on the reduction of the spontaneous locomotor activity caused by MPTP-treatment were examined.
MPTP (40 mg/kg, i.p., saline) was injected twice at 24-hr intervals to C57BL/6 mice (male), and the day after the last administration, the mice were placed in locomotor activity measuring apparatus. After 30 min, compound (IX) alone (0.3, 1, 3 mg/kg, p.o.) was administered.

For `C[C@@H]1OC(=O)N[C@@H]1C(=O)NC(Cc1cscn1)C(=O)N1CCC[C@H]1C` (stereo in doubt) [Compound (IX)], the “dose at which the spontaneous locomotor activity was increased” value with normal mice is recorded as ≥ 3 mg/kg. In addition, the “spontaneous locomotor activity, Total” value was 14468 ± 3618 in the assay with 6-OHDA-treated mice (compound (IX) 1 mg/kg p.o. in combination with L-DOPA 10 mg/kg i.p. (carbidopa pre-treatment), 5 hours, P < 0.01 vs 6-OHDA-treated group); “significant and remarkable increase” with 6-OHDA-treated mice (compound (IX) 1 mg/kg p.o. in combination with L-DOPA 10 mg/kg i.p. (carbidopa pre-treatment), 5 hours, P < 0.01 vs 6-OHDA-treated group, listed as compound (IX)); 2512 ± 333 with 6-OHDA-treated mice (compound (IX) 1 mg/kg p.o. in single administration, measured for 5 hours, 1 mg/kg); “did not show significant increase” in the assay on 6-OHDA-treated mice (compound (IX) 1 mg/kg p.o. in single administration, measured for 5 hours, listed as compound (IX), 1 mg/kg); 5463 ± 700 with MPTP-treated mice; “significantly increased” with MPTP-treated mice (listed as compound (IX)). The “catalepsy score, mean” value in assay [1] (compound (IX) 1 mg/kg p.o. + L-DOPA 100 mg/kg i.p.) is on record as 2.3; in assay [1] (compound (IX) 1 mg/kg p.o. + L-DOPA 100 mg/kg i.p., listed as compound (IX)), “significant depression effect”; in assay [1] (compound (IX) 3 mg/kg p.o. + L-DOPA 100 mg/kg i.p.) it was 9.2; in assay [1] (compound (IX) 3 mg/kg p.o. + L-DOPA 100 mg/kg i.p., listed as compound (IX)) it was “significant depression effect”.

The values above are taken from patent publication US20030191120A1, “Antiparkinsonism drugs” (priority 2000, published 2003).
